Experimental data reported in the kinase profiling compilation of Christmann-Franck et al. (2016).

Assays:
Experiment in all cases: radiometric filter-binding kinase assay, Kinase HotSpot
Conditions in all cases: compound 0.5 µM; ATP 10 µM
ACVR1B (human) = ACVR1B (human) (UniProt P36896)
ACVRL1 (human) = ACVRL1 (human) (UniProt P37023)
ALK (human) = ALK (human) (UniProt Q9UM73)
AURKC (human) = AURKC (human) (UniProt Q9UQB9)
CAMK1D (human) = CAMK1D (human) (UniProt Q8IU85)
CDC42BPB (human) = CDC42BPB (human) (UniProt Q9Y5S2)
CSNK1A1 (human) = CSNK1A1 (human) (UniProt P48729)
CSNK1E (human) = CSNK1E (human) (UniProt P49674)
DAPK2 (human) = DAPK2 (human) (UniProt Q9UIK4)
EPHA1 (human) = EPHA1 (human) (UniProt P21709)
FER (human) = FER (human) (UniProt P16591)
FES (human) = FES (human) (UniProt P07332)
FGFR4 (human) = FGFR4 (human) (UniProt P22455)
HIPK4 (human) = HIPK4 (human) (UniProt Q8NE63)
KIT (human) = KIT (human) (UniProt P10721)
LRRK2 (human) = LRRK2 (human) (UniProt Q5S007)
MAP3K10 (human) = MAP3K10 (human) (UniProt Q02779)
MAP3K2 (human) = MAP3K2 (human) (UniProt Q9Y2U5)
MAP3K5 (human) = MAP3K5 (human) (UniProt Q99683)
MATK (human) = MATK (human) (UniProt P42679)
MERTK (human) = MERTK (human) (UniProt Q12866)
NEK11 (human) = NEK11 (human) (UniProt Q8NG66)
NLK (human) = NLK (human) (UniProt Q9UBE8)
NTRK2 (human) = NTRK2 (human) (UniProt Q16620)
PAK2 (human) = PAK2 (human) (UniProt Q13177)
PDPK1 (human) = PDPK1 (human) (UniProt O15530)
PIM1 (human) = PIM1 (human) (UniProt P11309)
PLK1 (human) = PLK1 (human) (UniProt P53350)
RAF1 (human) = RAF1 (human) (UniProt P04049)
RET (human) = RET (human) (UniProt P07949)
ROCK2 (human) = ROCK2 (human) (UniProt O75116)
ROS1 (human) = ROS1 (human) (UniProt P08922)
RPS6KB2 (human) = RPS6KB2 (human) (UniProt Q9UBS0)
SLK (human) = SLK (human) (UniProt Q9H2G2)
SRPK2 (human) = SRPK2 (human) (UniProt P78362)
TGFBR2 (human) = TGFBR2 (human) (UniProt P37173)
TNK2 (human) = TNK2 (human) (UniProt Q07912)
[1] = biological target: TYK2 JH1 catalytic (human) (UniProt P29597)
WNK2 (human) = WNK2 (human) (UniProt Q9Y3S1)
MET (human) = MET (human) (UniProt P08581)
ZAP70 (human) = ZAP70 (human) (UniProt P43403)

Sequence of PDPK1 (human) (O15530 whole entry, looked up): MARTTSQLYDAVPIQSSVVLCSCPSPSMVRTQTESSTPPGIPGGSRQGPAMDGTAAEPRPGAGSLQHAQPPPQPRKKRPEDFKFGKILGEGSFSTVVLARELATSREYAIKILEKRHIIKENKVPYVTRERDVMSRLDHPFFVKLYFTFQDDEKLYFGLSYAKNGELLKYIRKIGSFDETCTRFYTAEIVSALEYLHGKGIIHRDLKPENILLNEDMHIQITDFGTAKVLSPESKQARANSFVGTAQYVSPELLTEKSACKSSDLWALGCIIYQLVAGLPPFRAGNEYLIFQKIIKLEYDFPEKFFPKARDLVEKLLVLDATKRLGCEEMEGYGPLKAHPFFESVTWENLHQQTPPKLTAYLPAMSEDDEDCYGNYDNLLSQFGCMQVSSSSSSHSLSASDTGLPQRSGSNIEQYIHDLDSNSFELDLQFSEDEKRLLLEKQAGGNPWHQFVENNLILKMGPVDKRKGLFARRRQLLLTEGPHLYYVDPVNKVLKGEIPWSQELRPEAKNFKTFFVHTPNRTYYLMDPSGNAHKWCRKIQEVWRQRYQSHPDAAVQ
Sequence of MAP3K2 (human) (Q9Y2U5 whole entry, looked up): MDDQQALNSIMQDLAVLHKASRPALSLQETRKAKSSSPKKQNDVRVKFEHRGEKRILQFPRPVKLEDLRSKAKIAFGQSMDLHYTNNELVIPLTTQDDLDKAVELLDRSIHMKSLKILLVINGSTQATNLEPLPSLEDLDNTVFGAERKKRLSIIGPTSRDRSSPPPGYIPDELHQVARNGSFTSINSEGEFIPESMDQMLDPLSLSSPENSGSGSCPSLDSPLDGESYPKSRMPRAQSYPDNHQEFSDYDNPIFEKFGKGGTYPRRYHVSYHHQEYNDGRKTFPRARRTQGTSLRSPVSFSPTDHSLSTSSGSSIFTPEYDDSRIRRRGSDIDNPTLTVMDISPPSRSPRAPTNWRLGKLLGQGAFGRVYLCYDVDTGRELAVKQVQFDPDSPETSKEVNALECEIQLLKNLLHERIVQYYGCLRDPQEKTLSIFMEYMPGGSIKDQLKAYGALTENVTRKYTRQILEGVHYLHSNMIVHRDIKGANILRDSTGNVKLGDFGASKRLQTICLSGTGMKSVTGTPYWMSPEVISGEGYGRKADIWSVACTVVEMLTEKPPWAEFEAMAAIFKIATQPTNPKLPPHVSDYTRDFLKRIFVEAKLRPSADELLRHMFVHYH
Sequence of SRPK2 (human) (P78362 whole entry, looked up): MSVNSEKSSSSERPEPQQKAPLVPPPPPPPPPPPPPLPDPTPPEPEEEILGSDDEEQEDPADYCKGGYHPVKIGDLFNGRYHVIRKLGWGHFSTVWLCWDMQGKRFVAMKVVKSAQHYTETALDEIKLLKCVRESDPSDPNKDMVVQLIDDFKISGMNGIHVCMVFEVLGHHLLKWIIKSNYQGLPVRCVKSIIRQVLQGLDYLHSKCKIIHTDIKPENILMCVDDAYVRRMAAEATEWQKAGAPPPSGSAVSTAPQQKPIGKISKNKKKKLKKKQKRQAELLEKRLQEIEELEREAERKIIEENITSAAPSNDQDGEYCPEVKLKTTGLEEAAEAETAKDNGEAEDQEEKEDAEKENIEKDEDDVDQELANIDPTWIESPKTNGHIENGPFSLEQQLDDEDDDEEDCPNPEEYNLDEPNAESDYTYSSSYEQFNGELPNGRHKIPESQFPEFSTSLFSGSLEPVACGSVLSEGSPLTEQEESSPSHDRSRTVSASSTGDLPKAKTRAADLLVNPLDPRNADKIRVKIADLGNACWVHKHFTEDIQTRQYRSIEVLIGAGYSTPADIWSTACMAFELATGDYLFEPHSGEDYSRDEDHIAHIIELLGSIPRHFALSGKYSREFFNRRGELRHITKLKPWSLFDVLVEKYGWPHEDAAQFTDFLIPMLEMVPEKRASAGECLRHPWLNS
Sequence of RAF1 (human) (P04049 whole entry, looked up): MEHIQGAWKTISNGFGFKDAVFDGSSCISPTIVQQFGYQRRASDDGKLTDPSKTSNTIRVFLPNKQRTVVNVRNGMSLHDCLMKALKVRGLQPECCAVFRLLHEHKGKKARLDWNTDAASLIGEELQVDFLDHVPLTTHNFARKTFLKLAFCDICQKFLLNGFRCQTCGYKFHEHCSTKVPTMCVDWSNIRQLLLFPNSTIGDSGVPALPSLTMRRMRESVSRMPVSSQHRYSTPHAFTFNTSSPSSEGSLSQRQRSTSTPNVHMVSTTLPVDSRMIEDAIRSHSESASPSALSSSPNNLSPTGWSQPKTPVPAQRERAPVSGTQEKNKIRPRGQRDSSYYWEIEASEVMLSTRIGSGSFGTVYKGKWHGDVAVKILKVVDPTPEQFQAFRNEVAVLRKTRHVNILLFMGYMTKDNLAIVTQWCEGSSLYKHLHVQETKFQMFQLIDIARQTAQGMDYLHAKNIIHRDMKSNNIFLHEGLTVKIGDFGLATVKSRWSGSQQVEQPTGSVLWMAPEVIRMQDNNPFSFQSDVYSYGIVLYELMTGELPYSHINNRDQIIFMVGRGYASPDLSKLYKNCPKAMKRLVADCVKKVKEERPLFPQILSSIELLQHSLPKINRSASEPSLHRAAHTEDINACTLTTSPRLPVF
Sequence of PIM1 (human) (P11309 whole entry, looked up): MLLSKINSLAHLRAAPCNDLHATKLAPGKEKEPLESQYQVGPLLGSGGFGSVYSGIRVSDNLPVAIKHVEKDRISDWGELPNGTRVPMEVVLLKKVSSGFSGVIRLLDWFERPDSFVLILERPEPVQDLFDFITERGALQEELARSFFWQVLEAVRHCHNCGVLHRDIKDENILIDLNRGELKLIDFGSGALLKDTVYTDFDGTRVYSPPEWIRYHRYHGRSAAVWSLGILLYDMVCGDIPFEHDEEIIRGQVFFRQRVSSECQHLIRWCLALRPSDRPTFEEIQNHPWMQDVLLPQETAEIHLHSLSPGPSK
Sequence of MATK (human) (P42679 whole entry, looked up): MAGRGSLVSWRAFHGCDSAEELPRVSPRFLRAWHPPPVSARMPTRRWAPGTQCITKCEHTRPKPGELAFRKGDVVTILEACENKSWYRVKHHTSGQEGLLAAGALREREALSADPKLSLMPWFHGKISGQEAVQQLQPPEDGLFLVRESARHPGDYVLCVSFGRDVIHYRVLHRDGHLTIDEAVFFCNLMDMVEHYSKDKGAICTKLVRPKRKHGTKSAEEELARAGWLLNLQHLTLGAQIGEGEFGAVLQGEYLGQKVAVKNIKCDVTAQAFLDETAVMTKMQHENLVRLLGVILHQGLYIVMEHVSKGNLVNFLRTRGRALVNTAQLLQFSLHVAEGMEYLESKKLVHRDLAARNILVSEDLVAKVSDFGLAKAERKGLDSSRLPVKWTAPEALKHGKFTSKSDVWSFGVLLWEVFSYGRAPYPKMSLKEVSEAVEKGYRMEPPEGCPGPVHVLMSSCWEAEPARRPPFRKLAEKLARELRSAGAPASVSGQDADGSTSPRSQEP
Sequence of EPHA1 (human) (P21709 whole entry, looked up): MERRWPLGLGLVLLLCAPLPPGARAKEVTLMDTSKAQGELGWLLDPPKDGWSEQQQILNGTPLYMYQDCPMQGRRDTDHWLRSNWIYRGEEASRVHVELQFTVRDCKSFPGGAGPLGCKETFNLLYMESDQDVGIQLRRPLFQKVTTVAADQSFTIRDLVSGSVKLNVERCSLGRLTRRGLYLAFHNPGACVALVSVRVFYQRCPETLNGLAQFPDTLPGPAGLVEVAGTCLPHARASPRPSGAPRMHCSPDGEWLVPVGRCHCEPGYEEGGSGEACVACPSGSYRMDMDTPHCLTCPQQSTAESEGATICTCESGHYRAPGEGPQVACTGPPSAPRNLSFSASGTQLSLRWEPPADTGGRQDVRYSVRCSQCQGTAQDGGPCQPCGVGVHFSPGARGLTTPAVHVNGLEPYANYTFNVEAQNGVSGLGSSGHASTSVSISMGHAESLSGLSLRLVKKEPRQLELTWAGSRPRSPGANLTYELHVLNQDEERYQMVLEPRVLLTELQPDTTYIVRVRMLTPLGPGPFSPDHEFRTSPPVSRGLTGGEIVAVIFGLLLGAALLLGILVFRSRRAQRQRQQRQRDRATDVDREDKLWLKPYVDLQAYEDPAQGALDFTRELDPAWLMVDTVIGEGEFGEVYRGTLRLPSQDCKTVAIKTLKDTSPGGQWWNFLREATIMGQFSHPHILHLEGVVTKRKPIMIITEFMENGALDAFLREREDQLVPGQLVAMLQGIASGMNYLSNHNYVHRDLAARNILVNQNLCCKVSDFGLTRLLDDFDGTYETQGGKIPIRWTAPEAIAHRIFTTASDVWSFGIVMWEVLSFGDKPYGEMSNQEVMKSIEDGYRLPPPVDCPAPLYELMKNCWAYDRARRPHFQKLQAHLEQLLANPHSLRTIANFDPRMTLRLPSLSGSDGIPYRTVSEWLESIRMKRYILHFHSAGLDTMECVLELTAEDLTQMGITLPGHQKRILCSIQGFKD
Sequence of DAPK2 (human) (Q9UIK4 whole entry, looked up): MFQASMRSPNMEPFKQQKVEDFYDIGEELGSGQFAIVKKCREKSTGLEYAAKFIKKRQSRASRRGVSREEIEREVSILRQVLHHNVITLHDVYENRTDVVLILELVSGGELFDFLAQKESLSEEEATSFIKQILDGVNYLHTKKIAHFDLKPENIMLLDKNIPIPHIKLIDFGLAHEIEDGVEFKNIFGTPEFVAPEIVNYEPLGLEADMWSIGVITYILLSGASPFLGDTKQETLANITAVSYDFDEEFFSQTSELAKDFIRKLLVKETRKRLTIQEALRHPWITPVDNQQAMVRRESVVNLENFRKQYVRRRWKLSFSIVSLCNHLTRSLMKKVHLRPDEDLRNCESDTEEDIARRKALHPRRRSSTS
Sequence of CSNK1A1 (human) (P48729 whole entry, looked up): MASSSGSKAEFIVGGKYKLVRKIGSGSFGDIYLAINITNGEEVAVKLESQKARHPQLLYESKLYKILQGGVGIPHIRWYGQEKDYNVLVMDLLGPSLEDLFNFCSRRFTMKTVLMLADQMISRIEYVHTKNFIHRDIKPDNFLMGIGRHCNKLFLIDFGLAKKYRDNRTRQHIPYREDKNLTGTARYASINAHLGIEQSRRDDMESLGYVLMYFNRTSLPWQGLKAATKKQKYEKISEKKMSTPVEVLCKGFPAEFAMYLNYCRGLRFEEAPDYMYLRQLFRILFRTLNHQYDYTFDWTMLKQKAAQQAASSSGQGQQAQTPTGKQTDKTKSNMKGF

Work on `O=C1NC(=O)C(c2c[nH]c3ccccc23)=C1c1c[nH]c2ccccc12` yielded a residual activity (ACVR1B (human)) of 112%, a residual activity (ACVRL1 (human)) of 96.5% and a residual activity (ALK (human)) of 95.7%. It also gave a residual activity (AURKC (human)) of 101%, a residual activity (CAMK1D (human)) of 106% and a residual activity (CDC42BPB (human)) of 99%. It also gave a residual activity (CSNK1A1 (human)) of 98.4%, a residual activity (CSNK1E (human)) of 92.4% and a residual activity (DAPK2 (human)) of 88.6%. The residual activity (EPHA1 (human)) was 92.1%, the residual activity (FER (human)) was 83.5% and the residual activity (FES (human)) was 99.8%. The residual activity (FGFR4 (human)) was 87.8%, the residual activity (HIPK4 (human)) was 109% and the residual activity (KIT (human)) was 68.5%. It also gave a residual activity (LRRK2 (human)) of 77.5%, a residual activity (MAP3K10 (human)) of 79% and a residual activity (MAP3K2 (human)) of 107%. For the same compound, the residual activity (MAP3K5 (human)) was 106%, the residual activity (MATK (human)) was 91.1% and the residual activity (MERTK (human)) was 86.1%. The residual activity (NEK11 (human)) was 108%, the residual activity (NLK (human)) was 103% and the residual activity (NTRK2 (human)) was 90.7%. The residual activity (PAK2 (human)) was 97%, the residual activity (PDPK1 (human)) was 96.7% and the residual activity (PIM1 (human)) was 17.2%. The residual activity (PLK1 (human)) was 94.5%, the residual activity (RAF1 (human)) was 122% and the residual activity (RET (human)) was 80.6%. The residual activity (ROCK2 (human)) was 89.2%, the residual activity (ROS1 (human)) was 87% and the residual activity (RPS6KB2 (human)) was 94.6%. It also gave a residual activity (SLK (human)) of 45.4%, a residual activity (SRPK2 (human)) of 84.3% and a residual activity (TGFBR2 (human)) of 95.5%. The residual activity (TNK2 (human)) was 94.9%, the residual activity [1] was 109% and the residual activity (WNK2 (human)) was 92.7%.

`Cn1cnc2cc3c(Nc4cccc(Br)c4)ncnc3cc21` showed a residual activity (ACVR1B (human)) of 111%, a residual activity (ACVRL1 (human)) of 102% and a residual activity (ALK (human)) of 92.4%. For the same compound, the residual activity (AURKC (human)) was 96.5%, the residual activity (CAMK1D (human)) was 104% and the residual activity (CDC42BPB (human)) was 104%. It also gave a residual activity (CSNK1A1 (human)) of 102%, a residual activity (CSNK1E (human)) of 90.3% and a residual activity (DAPK2 (human)) of 92.5%. It also gave a residual activity (EPHA1 (human)) of 84.4%, a residual activity (FER (human)) of 90.6% and a residual activity (FES (human)) of 101%. It also gave a residual activity (FGFR4 (human)) of 94.1%, a residual activity (HIPK4 (human)) of 88.6% and a residual activity (KIT (human)) of 78.6%. For the same compound, the residual activity (LRRK2 (human)) was 68.2%, the residual activity (MAP3K10 (human)) was 94% and the residual activity (MAP3K2 (human)) was 97.6%. It also gave a residual activity (MAP3K5 (human)) of 110%, a residual activity (MATK (human)) of 85.9% and a residual activity (MERTK (human)) of 77.5%. For the same compound, the residual activity (MET (human)) was 101%, the residual activity (NEK11 (human)) was 101% and the residual activity (NLK (human)) was 100%. The residual activity (NTRK2 (human)) was 98.9%, the residual activity (PAK2 (human)) was 99.8% and the residual activity (PDPK1 (human)) was 98.8%. It also gave a residual activity (PIM1 (human)) of 73.8%, a residual activity (PLK1 (human)) of 97.6% and a residual activity (RAF1 (human)) of 98.6%. The residual activity (RET (human)) was 54.4%, the residual activity (ROCK2 (human)) was 88.5% and the residual activity (ROS1 (human)) was 99.9%. It also gave a residual activity (RPS6KB2 (human)) of 96.8%, a residual activity (SLK (human)) of 67.8% and a residual activity (SRPK2 (human)) of 97.1%. For the same compound, the residual activity (TGFBR2 (human)) was 98.9%, the residual activity (TNK2 (human)) was 87.3% and the residual activity [1] was 112%. For the same compound, the residual activity (WNK2 (human)) was 89.7% and the residual activity (ZAP70 (human)) was 110%.

With `O=C1Cc2c([nH]c3ccc(Br)cc23)-c2ccccc2N1` the residual activity (ACVR1B (human)) was 99.8%, the residual activity (ACVRL1 (human)) was 99% and the residual activity (ALK (human)) was 90.8%. The residual activity (AURKC (human)) was 90.9%, the residual activity (CAMK1D (human)) was 112% and the residual activity (CDC42BPB (human)) was 95.9%. The residual activity (CSNK1A1 (human)) was 95.1%, the residual activity (CSNK1E (human)) was 103% and the residual activity (DAPK2 (human)) was 100%. The residual activity (EPHA1 (human)) was 100%, the residual activity (FER (human)) was 89.7% and the residual activity (FES (human)) was 87.8%. For the same compound, the residual activity (FGFR4 (human)) was 113%, the residual activity (HIPK4 (human)) was 105% and the residual activity (KIT (human)) was 90.3%. The residual activity (LRRK2 (human)) was 78.7%, the residual activity (MAP3K10 (human)) was 79.3% and the residual activity (MAP3K2 (human)) was 94.2%. It also gave a residual activity (MAP3K5 (human)) of 99.2%, a residual activity (MATK (human)) of 93.6% and a residual activity (MERTK (human)) of 89.5%. The residual activity (NEK11 (human)) was 107%, the residual activity (NLK (human)) was 98.7% and the residual activity (NTRK2 (human)) was 95%. It also gave a residual activity (PAK2 (human)) of 95.5%, a residual activity (PDPK1 (human)) of 94.9% and a residual activity (PIM1 (human)) of 96.8%. The residual activity (PLK1 (human)) was 94.9%, the residual activity (RAF1 (human)) was 91.5% and the residual activity (RET (human)) was 102%. The residual activity (ROCK2 (human)) was 84.6%, the residual activity (ROS1 (human)) was 83.6% and the residual activity (RPS6KB2 (human)) was 99.4%. For the same compound, the residual activity (SLK (human)) was 95.7%, the residual activity (SRPK2 (human)) was 98.9% and the residual activity (TGFBR2 (human)) was 74.2%. For the same compound, the residual activity (TNK2 (human)) was 38.8%, the residual activity [1] was 81.7% and the residual activity (WNK2 (human)) was 112%. It also gave a residual activity (ZAP70 (human)) of 93.6%.
